Source: patent publication US20250376473A1, “PRMTS INHIBITOR AND USE THEREOF” (Cytosinlab Therapeutics Co., Ltd., priority 2022, published 2025)
Read-outs that look alike come from different tables or passages of the source.

How the values were obtained:
[1] = system: HCT116 MTAP WT cells; assay: Proliferation inhibition of HCT116 cells in vitro (CellTiter Glo); type: cell-based; details: 6 days, 9 concentrations starting from 30 μM, read-out: Cell proliferation inhibition rate HCT116 MTAP WT IC50 (nm)
Description: (§1) Biological Test Example 2 Proliferation Inhibition of HCT116 and HCT116 MTAP-KO Cells in Vitro
(§2) HCT116 cell line was purchased from the Chinese Academy of Sciences Cell Bank, and the MTAP gene was knocked out by CRISPR/Cas9 technology to obtain HCT116-MTAP-KO cell line.
(§3) McCoy's 5A medium (Gibco, catalog No. 16600082), fetal bovine serum (Gibco, catalog No. 10099141C), penicillin-streptomycin double antibody (Gibco, catalog No. 15140122), pancreatic enzyme (Gibco, catalog No. 25200056), CellTiter Glo assay kit (Promega, catalog No. G7572), 384-well transparent flat-bottomed black walled cell culture plate (Corning, catalog No. 3764), ultra micro sampler (Tecan, catalog No.D300e), Multimode reader (Biotek, catalog No. SynergyHTX)
(§4) 1. Cell culture: HCT116 and HCT116-MTAP-KO cells were cultured in McCoy'5A medium+10% fetal bovine serum+1% penicillin-streptomycin double antibody; to ensure that they were always in the logarithmic growth phase and the cell viability greater than 95%.
(§5) 2. Compound concentration gradient preparation: The compound to be tested was added to a 384-well plate using an ultra micro sampler, starting from 30 μM (HCT116 cells) or 3 μM (HCT116-MTAP-KO cells), and diluted with DMSO at 3 times for a total of 9 concentrations and set up three duplicate wells.
(§6) 3. Treatment of cells with compounds: Trypsin-digested HCT116 or HCT116-MTAP-KO cell suspension was added to the 384-well plates spotted with the compounds to be tested at 40 μL per well, i.e., 100 cells per well, and the final concentration of DMSO was 0.4%. The cell culture plate was incubated at 37° C. in a 5% CO2 incubator for 6 days.
(§7) 4. Detection: 20 μL of CellTiter Glo reagent was added to each well of the cell culture plate and incubated at room temperature for 30 minutes. A multimode reader was used to detect the luminescence signal at […].
(§8) The data was fitted with GraphPad Prism 8.0 software using a four parameter inhibitor-reaction model to obtain the IC50 value (half inhibitory concentration) of the test compounds.

[2] = system: HCT116-MTAP-KO cells (HCT116 MTAP null); assay: Proliferation inhibition of HCT116 MTAP-KO cells in vitro (CellTiter Glo); type: cell-based; details: 6 days, 9 concentrations starting from 3 μM, read-out: Cell proliferation inhibition rate HCT116 MTAP null IC50 (nm)
Description: as §1, §2, §3, §4, §5, §6, §7, §8

| IC50 ([1]; Homo sapiens, HCT-116, 144 h) [nM] | IC50 ([2]; HCT116-MTAP null, 144 h) [nM] | IC50 [1] [nM] | IC50 [2] [nM] | SMILES |
| --- | --- | --- | --- | --- |
| 100 to 1000 | < 100 | – | – | Cc1cn2c(n1)c(N)nc1cc(F)c(C(=O)N3[C@H](C)COC[C@@H]3c3cn4cc(C(F)(F)F)ccc4n3)cc12 [Example 31] |
| 1000 to 10000 | < 100 | – | – | Cc1ncc2c(N)nc3cc(F)c(C(=O)N(Cc4ccc(N5CC(F)(F)C5)cn4)c4ccnn4C)cc3n12 [Example 219] |
| 100 to 1000 | < 100 | – | – | COc1ccc(CN(C(=O)c2cc3c(cc2F)nc(N)c2c(C)ncn23)c2cn(C)nc2C)nn1 [Example 197] |
| 1000 to 10000 | < 100 | – | – | Cc1ncn2c1c(N)nc1ccc(C(=O)N(Cc3nc(C4CCOCC4)cs3)CC(C)C)cc12 [Example 310] |
| 1000 to 10000 | < 100 | – | – | Cc1nn(C)cc1N(Cc1ccc(OC(F)(F)F)cn1)C(=O)c1cc2c(cc1F)nc(N)c1cnc(C)n12 [Example 157] |
| 1000 to 10000 | 100 to 1000 | – | – | Cc1cccc(-c2ncc(CN(CC(C)C)C(=O)c3ccc4nc(N)c5c(C)ncn5c4c3)[nH]2)n1 [Example 308] |
| – | – | 1000 to 10000 | < 100 | Cc1nc(C)n2c1c(N)nc1ccc(C(=O)N(Cc3ccc(C(F)(F)F)cn3)C(C)c3ncccn3)cc12 (stereo not shown) [Example 14] |
| 1000 to 10000 | < 100 | – | – | Cc1cc2nc(N)c3cnc(C)n3c2cc1C(=O)N(Cc1ccc(C(F)(F)F)cn1)c1cn(C)nc1C [Example 188, 4-Amino-N-(1,3-dimethyl-1H-pyrazol-4-yl)-1,7-dimethyl-N-((5-(trifluoromethyl)pyridin-2-yl)methyl)imidazolo[1,5-a]quinoxalin-8-carboxamide] |
| 1000 to 10000 | 100 to 1000 | – | – | CCn1cc(N(Cc2ccc(C(F)(F)F)nn2)C(=O)c2cc3c(cc2F)nc(N)c2cnc(C)n23)c(C)n1 [Example 202] |
| – | – | < 100 | < 100 | Cc1cnn2c1c(N)nc1ccc(C(=O)N(Cc3ccc(C(F)(F)F)cn3)C(C)c3ncccn3)cc12 (stereo not shown) [Example 315] |
| 1000 to 10000 | < 100 | – | – | CCN(Cc1ccc(C(F)(F)F)cn1)C(=O)c1cc2c(cc1F)nc(N)c1cnc(C)n12 [Example 18] |
| – | – | 100 to 1000 | < 100 | Cc1ncn2c1c(N)nc1cc(F)c(C(=O)N3C(C)COCC3c3ccc(C(F)F)cn3)cc12 (stereo not shown) [Example 101] |
| 1000 to 10000 | < 100 | – | – | Cc1c(N(Cc2ccc(C(F)(F)F)cn2)C(=O)c2cc3c(cc2F)nc(N)c2cnc(C)n23)cnn1C [Example 118] |
| 1000 to 10000 | 100 to 1000 | – | – | CCN(C(=O)c1cc2c(cc1F)nc(N)c1cnc(C)n12)C1COc2cc(-c3cnn(C(F)(F)F)c3)ccc21 (stereo not shown) [Example 75] |
| 1000 to 10000 | 100 to 1000 | – | – | Cn1ncc2c(N)nc3cc(F)c(C(=O)N4CCC5(CCN(c6ccc(C(F)(F)F)cc6)CC5)C4)cc3c21 [Example 414] |
| 1000 to 10000 | < 100 | – | – | Cc1ccc(N(Cc2ccc(C(F)(F)F)cn2)C(=O)c2cc3c(cc2F)nc(N)c2cnc(C)n23)cn1 [Example 139] |
| – | – | 100 to 1000 | < 100 | CCc1nn(C)cc1N(Cc1ccc(C(F)(F)F)cn1)C(=O)c1cc2c(cc1F)nc(N)c1cnc(C)n12 [Example 169] |
| 1000 to 10000 | 100 to 1000 | – | – | Cc1ncc2c(N)nc3cc(F)c(C(=O)N(Cc4ccc(C(F)(F)F)cn4)C4COC4)cc3n12 [Example 158] |
| 100 to 1000 | < 100 | – | – | COc1ncccc1N(Cc1ccc(C(F)(F)F)cn1)C(=O)c1cc2c(cc1F)nc(N)c1cnc(C)n12 [Example 145] |
| 1000 to 10000 | < 100 | – | – | COC1CCC1N(Cc1cn2cc(C(F)(F)F)ccc2n1)C(=O)c1cc2c(cc1F)nc(N)c1cnc(C)n12 (stereo not shown) [Example 240] |
| 1000 to 10000 | < 100 | – | – | CCn1cc(N(Cc2ccc(OC3CC3)cn2)C(=O)c2cc3c(cn2)nc(N)c2cnc(C)n23)c(C)n1 [Example 199] |
| 1000 to 10000 | < 100 | – | – | Cc1ncc2c(N)nc3cc(F)c(C(=O)N(Cc4ccc(C(F)(F)F)nn4)c4ccnn4C)cc3n12 [Example 223] |
| 1000 to 10000 | 100 to 1000 | – | – | COCCn1cc(CN(C(=O)c2cc3c(cc2F)nc(N)c2cnc(C)n23)c2ccnn2C)cn1 [Example 221] |
| 100 to 1000 | < 100 | – | – | Cc1nn(C)cc1N(Cc1ccc(OC2CC2)cn1)C(=O)c1cc2c(cn1)nc(N)c1cnc(C)n12 [Example 189] |

| IC50 ([1]; Homo sapiens, HCT-116, 144 h) [nM] | IC50 ([2]; HCT116-MTAP null, 144 h) [nM] | IC50 [1] [nM] | IC50 [2] [nM] | SMILES |
| --- | --- | --- | --- | --- |
| 1000 to 10000 | < 100 | – | – | Cc1nn(C)cc1N(Cc1ccc(OC2CC2)cn1)C(=O)c1cc2c(cc1F)nc(N)c1cnc(C)n12 [Example 144] |
| 1000 to 10000 | 100 to 1000 | – | – | CCN(Cc1nc(-c2ccc(C(F)(F)F)nc2)cs1)C(=O)c1cc2c(cc1F)nc(N)c1cnc(C)n12 [Example 73] |
| 1000 to 10000 | 100 to 1000 | – | – | Cc1nn(C)cc1N(Cc1ccc(C(F)(F)F)nn1)C(=O)c1cc2c(cc1F)nc(N)c1cnc(C)n12 [Example 127] |
| 100 to 1000 | < 100 | – | – | Cc1ncc2c(N)nc3cc(F)c(C(=O)N(Cc4ccc(C(F)(F)F)cn4)c4c(F)cnn4C)cc3n12 [Example 201] |
| 1000 to 10000 | 100 to 1000 | – | – | Cc1[nH]ncc1N(Cc1ccc(C(F)(F)F)cn1)C(=O)c1cc2c(cc1F)nc(N)c1cnc(C)n12 [Example 151] |
| 100 to 1000 | < 100 | – | – | Cc1nn(C)cc1N(Cc1ccc(OC2COC2)cn1)C(=O)c1cc2c(cc1F)nc(N)c1c(C)ncn12 [Example 195] |
| 1000 to 10000 | < 100 | – | – | Cc1ncc2c(N)nc3cc(F)c(C(=O)N4C(C)COCC4c4ccc(OC5CC5)cc4)cc3n12 (stereo not shown) [Example 87] |
| 100 to 1000 | < 100 | – | – | Cc1ncc2c(N)nc3cc(F)c(C(=O)N(Cc4ccc(OC5CC5)cn4)c4ccnn4C)cc3n12 [Example 205] |
| 1000 to 10000 | < 100 | – | – | Cc1nn(C)cc1N(Cc1ccc(C(F)(F)F)cn1)C(=O)c1cc2c(cn1)nc(N)c1cnc(C)n12 [Example 183] |
| 100 to 1000 | < 100 | – | – | Cc1ncccc1N(Cc1ccc(C(F)(F)F)cn1)C(=O)c1cc2c(cc1F)nc(N)c1cnc(C)n12 [Example 143, 4-Amino-7-fluoro-1-methyl-N-(2-methylpyridin-3-yl)-N-(5-(trifluoromethyl)pyridin-2-ylmethyl)imidazolo[1,5-a]quinoxalin-8-carboxamide] |
| – | < 100 | 100 to 1000 | – | Cc1ncn2c1c(N)nc1cc(F)c(C(=O)N3C(C)COCC3c3ccc(C(F)(F)F)cn3)cc12 (stereo not shown) [Example 280] |
| < 100 | < 100 | – | – | Cc1nn(C)cc1N(Cc1ccc(OC2CC2)cn1)C(=O)c1cc2c(cc1F)nc(N)c1c(C)ncn12 [Example 161] |
| 1000 to 10000 | 100 to 1000 | – | – | COc1ncc(N(Cc2ccc(C(F)(F)F)cn2)C(=O)c2cc3c(cc2F)nc(N)c2cnc(C)n23)cn1 [Example 148] |
| 1000 to 10000 | < 100 | – | – | Cc1ncc2c(N)nc3cc(F)c(C(=O)N(Cc4ncc(C(F)(F)F)cc4F)c4cnn(C)c4)cc3n12 [Example 120] |
| 1000 to 10000 | < 100 | – | – | CCOCCc1ccc(C2COCC(C)N2C(=O)c2cc3c(cc2F)nc(N)c2c(C)ncn23)nc1 (stereo not shown) [Example 103] |
| 1000 to 10000 | 100 to 1000 | – | – | Cc1ncc2c(N)nc3cc(F)c(C(=O)N(Cc4cnn(C5COC5)c4)c4ccnn4C)cc3n12 [Example 231] |
| 1000 to 10000 | < 100 | – | – | Cc1nn(C(C)C)cc1N(Cc1ccc(C(F)(F)F)cn1)C(=O)c1cc2c(cc1F)nc(N)c1cnc(C)n12 [Example 176] |
| 100 to 1000 | < 100 | – | – | Cc1ncc2c(N)nc3cc(F)c(C(=O)N4C(c5ccc(C(F)F)cn5)COC[C@H]4C)cc3n12 (stereo partly shown) [Example 110] |
| < 100 | < 100 | – | – | CCc1nn(C)cc1N(Cc1ccc(C(F)(F)F)cn1)C(=O)c1cc2c(cc1F)nc(N)c1c(C)ncn12 [Example 184] |
| 1000 to 10000 | 100 to 1000 | – | – | Cc1cn2c(n1)c(N)nc1ccc(C(=O)N3[C@H](C)COC[C@@H]3c3cn4ccccc4n3)cc12 [Example 29] |
| 100 to 1000 | < 100 | – | – | COCCN(Cc1cn2ccccc2n1)C(=O)c1cc2c(cc1F)nc(N)c1cnc(C)n12 [Example 27] |
| 1000 to 10000 | 100 to 1000 | – | – | COc1cc(N(Cc2ccc(C(F)(F)F)cn2)C(=O)c2cc3c(cc2F)nc(N)c2cnc(C)n23)nn1C [Example 122] |
| 1000 to 10000 | < 100 | – | – | COc1ccc(C2COCC(C)N2C(=O)c2cc3c(cc2F)nc(N)c2cnc(C)n23)nn1 (stereo not shown) [Example 271] |
